Values of other authors as cited in US11529387B2, “Nutritional supplements and methods of nutritional supplementation affecting global mood state” (Amare Global, priority 2019, dated 2022).

Tests used:
[1] = runners, submaximal running intensity, week 8 post-supplementation vs pre-supplementation and vs placebo, p<0.05

CC1=C(/C=C/C(C)=C/C=C/C(C)=C/C=C/C=C(C)/C=C/C=C(C)/C=C/C2=C(C)C(=O)[C@@H](O)CC2(C)C)C(C)(C)C[C@H](O)C1=O [NAX, astaxanthin]
heart rate (HR) at AT, anaerobic threshold [1]: significantly lower heart rate
heart rate (HR) at AeT, aerobic threshold [1]: significantly lower heart rate
Global Mood State score (8 weeks post-supplementation, lower score = more positive mood): 127+20
Global Mood change (8 weeks post-supplementation, lower score = more positive mood, p<0.05): −11%
Anger sub-scale change (baseline to week 8, NS): −12%
Confusion sub-scale change (baseline to week 8, NS): −28%
Tension sub-scale change (baseline to week 8, NS): −20%
Vigor sub-scale change (baseline to week 8, NS): +5%
Depression sub-scale change (baseline to week 8, p<0.05): −57%
Fatigue sub-scale change (baseline to week 8, p<0.05): −36%
